The text below walks through data of article PMC12655371.

Molecules are shown by their SMILES.

The nature of this data set: derived from PAMPA membrane permeability. Conditions: n-hexadecane (PAMPA-derived); buffer (PAMPA). (The PAMPA barrier holds no transporters, so it reflects passive diffusion.)
As to `CC(C)(C)c1ccc(C(O)CCCN2CCC(C(O)(c3ccccc3)c3ccccc3)CC2)cc1` (stereo not drawn), the “hexadecane/water partition coefficient derived from PAMPA flux (Khex/w)” value is 34105.6131886465 K (ratio). The result for `Clc1ccc2c(c1)CCc1cccnc1C2=C1CCNCC1` reads 99.11 K (ratio); that for `CN1CCC[C@@H]1Cc1c[nH]c2ccc(CCS(=O)(=O)c3ccccc3)cc12`, 1.2 K (ratio); that for `Cc1c(O)cccc1C(=O)N[C@@H](CSc1ccccc1)[C@H](O)CN1C[C@H]2CCCC[C@H]2C[C@H]1C(=O)NC(C)(C)C`, 0.398 K (ratio).

Turning to `CC(C)CN(C[C@@H](O)[C@H](Cc1ccccc1)NC(=O)O[C@H]1CCOC1)S(=O)(=O)c1ccc(N)cc1`, the “hexadecane/water partition coefficient derived from PAMPA flux (Khex/w)” value is 0.01885 K (ratio). The result for `c1ccc2c(c1)Sc1ccccc1N2CC1CN2CCC1CC2` (stereo not drawn) reads 2951 K (ratio).
